Experimental data reported in PMC3877894, “Cytotoxic, Cytostatic and HIV-1 PR Inhibitory Activities of the Soft Coral Litophyton arboreum” (Marine Drugs, 2013).
Several values for one entry are separate records, joined by “and”; a condition that tells them apart may be missing. Identical values can stand only once. Entries after “also recorded” stand apart in the source; their conditions may differ. Like-named read-outs stand apart in the source and are kept apart here. Starred links: 1 amine or outer side, 2 acyl side, 3 side chain; linkers in the order of their positions; H or OH if unused. Positions of bridges follow the written chain, without caps; N, C: chain ends. Non-standard residues stand in square brackets, D forms with d. Residues, ends and D or L forms follow the SMILES beside them. Chains are numbered I, II in the order given. Actinocin(9to1) = Cc1c2oc3c(C)ccc(C(=O)[*:1])c3nc-2c(C(=O)[*:2])c(N)c1=O; NMeV = CN[C@H](C(=O)O)C(C)C; Sar = CNCC(=O)O

Key:
[1] = XTT cytotoxicity assay in HeLa cells; details: human
Method: (§1) HeLa, U937, and Vero cell lines were maintained in culture flasks containing Eagle’s Minimum Essential Medium supplemented with 10% heat-inactivated FBS and 1% antibiotics (100 U/mL penicillin, 100 μg/mL streptomycin, and 250 μg/mL fungizone). The cells were grown at 37 °C in a humidified incubator set at 5% CO2. Cells were subcultured after they formed a monolayer on the flask. The cells were detached by treating them with trypsin-EDTA (0.25% trypsin containing 0.01% EDTA) for 10 minutes and then by adding complete medium to inhibit the reaction. Cytotoxicity was measured by the XTT method using the Cell Proliferation Kit II. The method described by Zheng et al. was used to perform the assay. Cells were seeded (100 μL) in a 96-well microtiter plate (concentration 1 × 10^5 cells/mL). The plate was then incubated for 24 h at 37 °C and 5% CO2 to allow the cells to attach to the bottom of the wells. The compounds were each prepared to a stock solution of 20 mg/mL and added to the microtiter plate. Serial dilutions were made to range from a concentration of 100 μg/mL–0.7 μg/mL for each compound. The microtiter plate was incubated for a further 72 h. The control wells included vehicle-treated cells exposed to 2% DMSO and the positive control Actinomycin D, with concentrations ranging between 0.5 μg/mL and 0.002 μg/mL. After the 72 h incubation period, the XTT reagent (50 μL) was added to a final concentration of 0.3 mg/mL and the plate was then further incubated for another 2 h. After the incubation the absorbance of the color complex was read at 490 nm with a reference wavelength set at 690 nm. […] The IC50 values were reported at ±95% confidence intervals (±95% CI). The results were analyzed using the GraphPad Prism 4 program.

[2] = XTT cytotoxicity assay in Vero cells; details: African green monkey
Method: as §1

[3] = XTT cytotoxicity assay in U937 cells; details: human
Method: as §1

[4] = target: T1, HIV-1 PR (Human immunodeficiency virus type 1 group M subtype B, UniProt P04585); assay: HIV-1 protease direct enzyme assay (fluorogenic peptide substrate); type: biochemical; details: for inhibition at 100 µg/mL: screened at 100 µg/mL
T1 construct: HIV-1 protease enzyme was purchased from Bachem Bioscience Inc; purchased Bachem Bioscience Inc
Method: HIV-1 protease enzyme was purchased from Bachem Bioscience Inc. King of Prussia, PA, […] and the substrate (a synthetic peptide that contains a cleavage site Tyr-Pro for HIV protease as well as two covalently modiﬁed amino acids for the detection of cleavage). The assay was performed according to procedures by Lam et al., 2000 [39], in black 96 well assay plates obtained from Corning Incorporated, (Corning, New York, NY, USA). The fluorescence intensity was measured at an excitation wavelength of 355 nm and an emission wavelength of 460 nm using a synergy microplate spectrofluorometer (BioTek, Analytical & Diagnostic products, South Africa). […] DMSO was included in the enzyme control (1% DMSO). […] The percentage inhibition was calculated based on the formula: 100 − [(Test reagent RFU − background RFU)/(untreated control RFU − blank) × 100] where RFU = relative fluorescence units.
All the experiments were repeated three times in order to ensure the precision and accuracy of the data.

[5] = tested on: HeLa cells; assay: Real-time cell electronic sensing (RT-CES, xCELLigence) in HeLa cells; type: cell-based; details: for inhibition of cell proliferation compared to untreated cells (RT-CES): HeLa, Figure 5
Method: The xCELLigence system was used according to the instructions of the supplier (Roche Diagnostics, Mannheim, Germany and ACEA Biosciences, San Diego, CA, USA). HeLa cell line, media, trypsin-EDTA, fetal bovine serum (FBS), phosphate buffer saline (PBS), and antibiotics were supplied by […] Biological (Pty) Ltd. (Modderfontein, Johannesburg, South Africa). The electronic impedance of sensor electrodes that connect the E plate to the instrument is measured to allow monitoring and detection of physiological changes of the cells on the electrodes. The impedance measured between electrodes in an individual well depends on electrode geometry, ion concentration in the well and whether or not cells are attached to the electrodes. In the absence of cells, electrode impedance is mainly determined by the ion environment, both at the electrode/solution interface, and in the bulk solution. In the presence of cells, cells attached to the electrode sensor surfaces will act as insulators and thereby alter the local ion environment at the electrode/solution interface, leading to an increase in impedance. Thus, the more cells that are growing on the electrodes, the larger the value of electrode impedance. This assay has been described for the measurement of cytotoxicity and can be used to determine other cellular parameters such as cell proliferation, cytotoxicity start time, cell recovery, and cell response patterns in real time. HeLa cells were grown and expanded in tissue-culture flasks. After reaching ~75% confluence, the HeLa were washed with PBS, and afterwards detached from the flasks by a brief treatment with trypsin. Subsequently, 50 μL of cell culture media at room temperature was added into each well of E-plate. After this the plate was connected to the system and checked in the cell culture incubator for proper electrical-contacts and the background impedance was measured over 24 h. […] One-hundred microliters of each cell suspension was added to the 50 μL medium containing wells on the E-plate, in order to determine the optimum cell concentration. After 30 min incubation at room temperature, E-plates were placed into the cell culture incubator. Finally, adhesion, growth, and proliferation of the cells was monitored every 30 min for a period of up to 18 h via the incorporated sensor electrode arrays of the E-Plate. The electrical impedance was measured by the RTCA-integrated software of the xCELLigence system as a dimensionless parameter termed Cell index (CI). […] All experiments were run for 72 h after adding the compounds. All calculations were obtained using the RTCA-integrated software of the xCELLigence system.

[6] = tested on: HeLa cells; assay: XTT cytotoxicity assay in HeLa cells; details: for IC50: read-out: Cytotoxicity IC50 HeLa, XTT, 72 h incubation
Method: as §1

[7] = tested on: Vero cell line; assay: XTT cytotoxicity assay in Vero cells; details: at 4.85 µM (HIV-1 PR IC50 concentration)
Method: as §1

[8] = tested on: U937 cells; assay: XTT cytotoxicity assay in U937 cells; details: at 4.85 µM (HIV-1 PR IC50 concentration)
Method: as §1

[9] = tested on: KB; design: method as in PMID 9722490; details: cited from earlier work
[10] = tested on: human prostate cancer cell line LNCaP; details: cited from earlier work
[11] = tested on: A549 cancer cell lines; details: cited from earlier work
[12] = tested on: HT-29; details: cited from earlier work
[13] = tested on: P-388; details: cited from earlier work
[14] = HeLa cells, Cytotoxicity IC50 HeLa, XTT
[15] = HeLa cells, Cytotoxicity IC50 HeLa, XTT, 72 h incubation

Cc1c2oc3c(C)ccc(C(=O)N[C@@H]4C(=O)N[C@H](C(C)C)C(=O)N5CCC[C@H]5C(=O)N(C)CC(=O)N(C)[C@@H](C(C)C)C(=O)O[C@@H]4C)c3nc-2c(C(=O)N[C@@H]2C(=O)N[C@H](C(C)C)C(=O)N3CCC[C@H]3C(=O)N(C)CC(=O)N(C)[C@@H](C(C)C)C(=O)O[C@@H]2C)c(N)c1=O [Actinomycin D, reference compound] (I: T[dV]P[Sar][NMeV] / II: T[dV]P[Sar][NMeV]; ester I:1-I:C, II:1-II:C; linker I:N-II:N via Actinocin(9to1))
IC50 at 72 h [1]: 5.1 ± 0.1 µM
IC50 at 72 h [2]: 8.8 ± 2.5 µM
IC50 at 72 h [3]: 1.9 ± 0.865 µM

CC1=CCCC(C)=CCC(O)(C(C)C)CCC(C)=CCC1 (centres unmarked) [Compound 1, sarcophytol M]
IC50 at 72 h [1, 14]: 8.1 µg/mL
IC50 at 72 h [1, 15]: 27.5 ± 0.2 µM
IC50 at 72 h ([2]; Vero cells): 22 ± 0.2 µM
IC50 at 72 h ([3]; U937 cells): 31.7 ± 3.2 µM
IC50 ([4]; read-out: IC50 HIV-1 PR): 15.7 ± 0.1 µM
inhibition at 100 µg/mL [4]: 100%

C=C1CCC(C(C)C)=CC2C1CCC2(C)O (centres unmarked) [Compound 2, alismol]
IC50 at 72 h [1, 15]: 30 ± 17.2 µM
IC50 at 72 h ([2]; Vero cells): 49 µM
IC50 ([4]; read-out: IC50 HIV-1 PR): 7.2 ± 0.7 µM
inhibition at 100 µg/mL [4]: 96.2%
RT-CES effect in HeLa ([5]; 16 μg/mL (Figure 5)): cytostatic behavior
RT-CES (xCELLigence) effect in HeLa ([5]; 30 µg/mL): cytostatic effect
inhibition of cell proliferation compared to untreated cells (RT-CES) [5]: 50%

C=C(CC[C@@H](C)[C@H]1CCC2C3CC=C4C[C@@H](O)CC[C@]4(C)C3CC[C@@]21C)C(C)C (stereo partly drawn) [Compound 3, 24-methylcholesta-5,24(28)-diene-3β-ol]
IC50 at 72 h [1, 15]: 48 ± 8.7 µM
IC50 at 72 h ([2]; Vero cells): 100 ± 1.2 µM

CO[C@]1(C)CCC(C(C)C)=C[C@H]2[C@H]1CC[C@]2(C)O [Compound 4, 10-O-methyl alismoxide]
IC50 at 72 h [1, 15]: 38 ± 0.7 µM
IC50 at 72 h ([2]; Vero cells): 49.8 ± 0.5 µM
IC50 at 72 h ([3]; U937 cells): 50 ± 0.23 µM

CC(C)C1=C[C@H]2[C@@H](CC[C@]2(C)O)[C@](C)(O)CC1 [Compound 5, alismoxide]
IC50 at 72 h [1, 15]: > 100 µM
IC50 at 72 h ([2]; Vero cells): > 100 µM
IC50 at 72 h ([3]; U937 cells): > 100 µM
RT-CES effect in HeLa ([5]; 60 μg/mL (Figure 5)): cytostatic behavior
RT-CES (xCELLigence) effect in HeLa ([5]; 100 µg/mL): cytostatic effect
inhibition of cell proliferation compared to untreated cells (RT-CES) [5]: 50%

CCCCCCCCCCCCCCCCOC[C@@H](O)CO [Compound 6, (S)-chimyl alcohol]
IC50 at 72 h [1, 15]: 23.4 ± 5.8 µM
IC50 at 72 h ([2]; Vero cells): 60 ± 1.14 µM
IC50 ([4]; read-out: IC50 HIV-1 PR): 26.6 ± 2.6 µM
inhibition at 100 µg/mL [4]: 100%

C=C(CCC(C)C1CCC2C3C(OC(C)=O)C=C4CC(O)CCC4(CO)C3CCC12C)C(C)C (stereo not drawn) [Compound 7, 7β-acetoxy-24-methylcholesta-5-24(28)-diene-3,19-diol]
CC50 at 72 h ([1]; HeLa cells): 4.3 ± 0.75 µM
IC50 at 72 h [1, 14]: 4.3 µg/mL
IC50 at 72 h [1, 15]: 4.3 µM
cell death in HeLa ([6]; at 4.85 µM (HIV-1 PR IC50 concentration)): 50%
IC50 [6]: 5.3 ± 0.6 µM
IC50 at 72 h ([2]; Vero cells): 31.3 ± 14 µM
effect in Vero (normal cells) [7]: no effect
IC50 at 72 h [3]: 7.8 µg/mL and 10.6 µM
cell death in U937 [8]: 20%
IC50 [4]: 4.85 ± 0.18 µM
inhibition at 100 µg/mL [4]: 71.5%
RT-CES response in HeLa ([5]; 2.5 µg/mL): dose dependent cytostatic response; also recorded: cytostatic effects
RT-CES response in HeLa ([5]; 10 and 5 µg/mL): dose dependent cytotoxic response; also recorded: dose dependent cytotoxic tendency
RT-CES cytotoxicity profile in HeLa ([5]; tested at IC50s obtained by XTT): confirmed their cytotoxic effects; also recorded: more toxic than the positive control
Cytotoxicity KB [9]: 0.38 µg/mL
Cytotoxicity IC50 LNCaP [10]: 15.5 µg/mL
Cytotoxicity A549 [11]: 0.81 µg/mL
Cytotoxicity HT-29 [12]: 0.87 µg/mL
Cytotoxicity P-388 [13]: 0.42 µg/mL

CCCCCCCCCCCCCC=CCCC=CC(O)C(CO)NC(=O)CCCCCCCCCCC (stereo not drawn) [Compound 8, erythro-N-dodecanoyl-docosasphinga-(4E,8E)-dienine]
IC50 at 72 h [1, 15]: 71 µM
IC50 [6]: 38.2 ± 0.7 µM
IC50 at 72 h ([2]; Vero cells): > 100 µM
IC50 at 72 h ([3]; U937 cells): > 100 µM
IC50 ([4]; read-out: IC50 HIV-1 PR): 4.8 ± 0.92 µM
inhibition at 100 µg/mL [4]: 100%
RT-CES (xCELLigence) effect in HeLa ([5]; 100 µg/mL): only affected at long incubation times; also recorded: low level cytotoxicity

C=C(CC[C@@H](C)[C@H]1CCC2C3C(CC[C@@]21C)[C@@]1(CO)CC[C@H](O)CC1=C[C@@H]3O)C(C)C (stereo partly drawn) [Compound 9, 24-methylcholesta-5,24(28)-diene-3β,7β,19-triol]
IC50 at 72 h ([1]; Cytotoxicity IC50 HeLa): 3.4 µg/mL and 8 µM
IC50 at 72 h [2]: 11.4 ± 0.04 µM
IC50 at 72 h [3]: 16.4 ± 1.25 µM
Cytotoxicity KB [9]: 0.58 µg/mL
Cytotoxicity IC50 LNCaP [10]: 4.9 µg/mL
Cytotoxicity A549 [11]: 0.69 µg/mL
Cytotoxicity HT-29 [12]: 0.72 µg/mL
Cytotoxicity P-388 [13]: 0.24 µg/mL
